# According to US6905834B1, “Bioluminescent bioreporter integrated circuit detection methods” (UT-Battelle, LLC, priority 1997, dated 2005):
# Like-named read-outs stand apart in the source and are kept apart here. Marks after values point to notes of the source that are not given here.
# Key:
# P. putida TVA8 = assay type: cell-based, Pseudomonas putida; details: for light response (in words): approximately 50 mg/L (JP-4 approx. 2%), 2 h; for Specific Bioluminescence: approximately 50 mg/L
# P. putida B2 = assay: Immobilized cell reactor (DVR) with alginate-encapsulated P. putida B2: bioluminescence and TCE co-metabolism; assay type: cell-based, Pseudomonas putida
# Method: In the batch and reactor studies, bioluminescence was measured using a photomultiplier, which converts the light to an electric current. The photomultiplier in the resting cell assays and the reactor system was connected to a computer and bioluminescence as namps current was recorded.
# P. putida B2 was encapsulated in alginate beads for the immobilized cell reactor system. Cells were grown in 1 L LB to an OD546 of 1.2 and were centrifuged at 5500×g for 10 min, washed three times in 0.9% NaCl and suspended in 40 ml 0.9% NaCl. The cell suspension was added to 80 ml of an alginic acid solution (28 g L^−1 low viscosity alginate, 0.9% NaCl) (Webb, 1992). The cell-alginate suspension was placed in a 60-ml syringe, forced through a 25-gauge needle, and allowed to drop into a 0.5 M CaCl2 Solution. The alginate was cross-linked by the Ca^2+ ions, thus encapsulating the cells. The cells were subsequently placed in a fresh solution of 0.1 M CaCl2 and allowed to sit for 30 min prior to use.
# A differential volume reactor (DVR) was used to simulate a section of an ideal plug flow reactor. Influent to the reactor was dispersed through a porous metal frit to provide a flat velocity profile to the bed. The reactor measured 5.0 cm i.d.×5.0 cm long. A complete description of this reactor can be found in Webb et al. (1991). In this investigation, a system was designed incorporating the DVR as illustrated in FIG. 17. The system was equipped with three Millipore (Bedford, Mass.) stainless steel substrate containers rated to 690 kPa. The feed from the substrate vessels to the reactor inlet was controlled by two Filson (Middleton, Wis.) 301 HPLC pumps. A flow rate of 0.4 ml min^−1 was maintained. The substrate vessels were pressurized with oxygen to provide the system with an electron acceptor. All medium vessels contained trace mineral medium (Lackey et al., 1993) with the addition of 3 mg L^−1 pyruvic acid and a 0.1 M solution of Tris-base (pH 7.0). phosphate buffers were not used since phosphate ions complex with Ca^2+ ions and disrupt with alginate crosslinking. In addition to this medium, two of the vessels contained either TCE or toluene. The inlet concentration of toluene was altered by using square-wave perturbations with 20-h cycles (10 h with toluene, 10 h without toluene) using an HPLC pump controlled by a timer. During feed portions of the cycle, 10 mg L^−1 toluene was introduced into the inlet of the reactor. The inlet TCE concentration was constant at 20 mg L^−1.
# Analysis of TCE in the reactor effluent was performed online using a stripping column (12.5 cm length and 0.4 cm inner diameter) packed with 3-mm glass beads to provide adequate surface area for TCE separation. TCE was stripped with helium, the GC carrier gas. The stripping column outlet was attached to a gas chromatograph (GC, Hewlett Packard (Wilmington, Del.) (HP) 5890 Series II) with an electron capture detector by a heated sample line maintained at 75° C. Automatic injections (25 μl) were made by a computerized control process (HP Chem Station software). The GC was equipped with a cross-linked methyl silicone capillary column (length 30 n, i.d 0.2 mm, 0.33-μm film thickness) while the oven was operated isothermally at 60° C. Other operating parameters included an injection temperature of 150° C., detector temperature of 200° C. and a split ratio of 10:1. This system was equipped with a bypass line around the reactor in order to calibrate the stripping column.
# Toluene samples were removed at 0.5-ml aliquots from the effluent sampling port (FIG. 17) and injected into 1.5 ml sample vials. Headspace analysis was performed using a Shimadzu (Columbia, Md.) GC-9A gas chromatograph equipped with a 2.44-m, 3.2-mm diameter Poropak N packed column and a flame ionization detector. The isothermal temperature of the oven was 210° C., and both the detector and injector temperatures were 220° C.
# P. fluorescens HK44 = assay type: cell-based, Pseudomonas fluorescens
# Text: A previously developed PBR system with on-line instrumentation (Webb, 1992; Webb et al., 1991) was used to measure bacterial degradative and bioluminescent activity under conditions mimicking those of the subsurface. The reactor design is detailed in FIG. 21. The PBR was temperature controlled and fitted with metal frits welded to the inlet and outlet to retain and distribute feed to immobilized cultures. An additional inter-cavity insert allowed the installation of filters (e.g., […] inorganic and polymeric) between the packed bed and outlet frit that filtered the effluent for automatic injection into the on-line high-performance liquid chromatography (HPLC) and that produced a uniform resistance to flow that improved the overall distribution to the reactor (Webb, 1992). […] HPLC pumps supplied media to each reactor from pressurized feed reservoirs. All nutrients, including oxygen, entered the reactor dissolved in the liquid phase. Naphthalene and salicylate were detected with an on-line HPLC using a Vydac TP20154 column (Sep/A/Ra/Tions Group, Hesperia, Calif.) with a FL-4 dual-monochromator fluorescent detector (Perkin-Elmer, Norwalk, Conn.). Respective excitation and emission wavelengths for salicylate detection were 290 and 360 nm. The reactor was fitted with an on-line light detector for monitoring bioluminescent activity (Dunbar, 1992) consisting of a glued fiber bundle (Ensign Bickford Optics, Simsbury, Conn.) placed approximately 2.5 cm from the entrance of the reactor. An Oriel Inc. (Stratford, Conn.) 7070 photomultiplier detection system using a Model 77348 photomultiplier tube (radiant sensitivity of […] near 500 nm) were employed.
# Mineral salts media (pH 7.2) consisting of MgSO4 7H2O ([…]), NH4NO3 ([…]), trizma™ base ([…]), MgO (1.0×10^−3 g/l), CaCl2 (2.9×10^−4 g/l), FeCl3.6H2O (5.4×10^−4 g/l), ZnSO4.7H2O (1.4×10^−4 g/l), CuSO4 (2.5×10^−5 g/l), […] (6.2×10^−6 g/l), and Na2MoO4.H2O (4.9×10^−5 g/l) were supplied to the reactor with an appropriate carbon source for degradation and bioluminescence studies. Kinetic bacterial studies were phosphate limited and maintained aerobic by con-trolled pressurization of feeds and the reactor.
# The HK44 was prepared for immobilization by adding freshly thawed inoculum (frozen at −70° C. until use) to 100 mL of YEPG media which contained glucose (1.0 g/l), polypeptone (2.0 g/l), yeast extract (0.2 g/l), NH4NO3 (0.2 g/l), and tetracycline (14 mg/l). The culture was shaken for 15 hours at 25° C. and then centrifuged at 8000 rpm for 10 minutes. The pellet was then washed with 0.9% NaCl solution three times before immobilization. The concentration of HK44 was enumerated by measuring optical density at 546 nm. The HK44 was immobilized by suspending bacteria in 0.9% NaCl solution and mixing with a low-viscosity alginate (28 g/L) and NaCl (9 g/L) solution in a ratio of 1:2 by volume. Beads were formed by controlled dropwise addition to 0.1 M CaCl2 solution by a syringe needle installed in an air jet controlled by a precision regulator (Porter Instrument Co., Hatfield, Pa.) and a piece of 0.003-in. (i.d.) tubing. Beads diameters were measured using gentle wet sieving. Alginate beads were dissolved in 50 mM sodium hexametaphosphate. […]
# [1] = Adsorption isotherms on calcium alginate; assay type: physicochemical
# Method: Tracer concentrations were measured using a Waters ion-chromatography system with a series 510 HPLC pump, IC-PAK anion exchange column, and 431 conductance detector (Waters, Cam-bridge, MA) or monitored continuously using fluorescence.
# [2] = exposure 2 hours, normalized to final OD546, average ± SD of three replicates
# [3] = inlet TCE 20 mg/L, toluene being introduced
compound,measurement,setting,value
Cc1ccc(C)cc1 [p-xylene],light response (in words),P. putida TVA8,significant light response
same,Specific Bioluminescence,P. putida TVA8; [2],24 ± 2 namp/OD
"c1ccccc1 [Benzene, benzene]",light response (in words),P. putida TVA8,significant light response
same,Specific Bioluminescence,P. putida TVA8; [2],242 ± 9 namp/OD
Cc1ccccc1C [o-xylene],light response (in words),P. putida TVA8,no increase of bioluminescence
same,Specific Bioluminescence,P. putida TVA8; [2],0.5 ± 0.1 namp/OD
"Oc1ccccc1 [Phenol, phenol]",light response (in words),P. putida TVA8,significant light response
same,Specific Bioluminescence,P. putida TVA8; [2],70 ± 2 namp/OD
"ClC=C(Cl)Cl [TCE, trichloroethylene]",toxic effects of continuous TCE exposure (in words),P. putida B2; 20 mg/l TCE,there did not appear to be any toxic effects
same,induction of the tod operon by TCE (in words),"P. putida B2; absence of toluene, 20 mg/L TCE",did not appear to induce the tod operon
same,TCE removal,P. putida B2; [3],20%
same,steady-state TCE effluent concentration,P. putida B2; [3],16.5 ± 0.2 mg/L
Cc1cccc(C)c1 [m-xylene],light response (in words),P. putida TVA8,significant light response
same,Specific Bioluminescence,P. putida TVA8; [2],38 ± 3 namp/OD
"CCc1ccccc1 [Ethylbenzene, ethylbenzene]",induction of bioluminescence response in pre-grown cells,"P. putida TVA8; 50 mg/L, cells previously grown on ethylbenzene, growing cell assays",induce the bioluminescence response without a lag period
same,Specific Bioluminescence,P. putida TVA8; [2],1.0 ± 0.2 namp/OD
same,Specific Bioluminescence,"P. putida TVA8; exposure 4 hours, from a similar but separate study",47 ± 6^c namp/OD
"O=C([O-])c1ccccc1O.[Na+] [Sodium salicylate, sodium salicylate]","least-squares reaction rate constant, overall second order model","P. fluorescens HK44; complete data set, figure legends",2.23×10^−2 dm^3/g mol
same,Salicylate effluent ± σ,"P. fluorescens HK44; experiment 1a, biomass 3.3 × 10^9 cells/mL, feed 2.25 mg/L, τ 14 min",1.43 ± 2.85 × 10^−2 mg/L
same,Salicylate effluent ± σ,"P. fluorescens HK44; experiment 1b, biomass 3.3 × 10^9 cells/mL, feed 2.25 mg/L, τ 58 min",0.46 ± 0.84 × 10^−2 mg/L
same,Salicylate effluent ± σ,"P. fluorescens HK44; experiment 1c, biomass 3.3 × 10^9 cells/mL, feed 2.25 mg/L, τ 14 min",1.65 ± 4.77 × 10^−2 mg/L
same,Salicylate effluent ± σ,"P. fluorescens HK44; experiment 2a, biomass 3.5 × 10^9 cells/mL, feed 2.47 mg/L, τ 24 min",1.03 ± 2.83 × 10^−2 mg/L
same,Salicylate effluent ± σ,"P. fluorescens HK44; experiment 2b, biomass 3.5 × 10^9 cells/mL, feed 2.47 mg/L, τ 26 min",0.86 ± 0.93 × 10^−2 mg/L
same,Salicylate effluent ± σ,"P. fluorescens HK44; experiment 2c, biomass 3.5 × 10^9 cells/mL, feed 2.47 mg/L, τ 94 min",0.20 + 0.28 × 10^−2 mg/L
same,Salicylate effluent ± σ,"P. fluorescens HK44; experiment 3a, biomass […] 10^9 cells/mL, feed 4.45 mg/L, τ 15 min",4.06 ± 8.85 × 10^−2 mg/L
same,Salicylate effluent ± σ,"P. fluorescens HK44; experiment 3b, biomass […] 10^9 cells/mL, feed 4.45 mg/L, τ 18 min",3.84 ± 6.99 × 10^−2 mg/L
same,Salicylate effluent ± σ,"P. fluorescens HK44; experiment 3c, biomass […] 10^9 cells/mL, feed 4.45 mg/L, τ 24 min",3.42 ± 8.55 × 10^−2 mg/L
same,Salicylate effluent ± σ,"P. fluorescens HK44; experiment 3f, biomass […] 10^9 cells/mL, feed 4.45 mg/L, τ 24 min",3.12 ± 4.09 × 10^−2 mg/L
same,Salicylate effluent ± σ,"P. fluorescens HK44; experiment 4b, biomass […] 10^9 cells/mL, feed 4.45 mg/L, τ 36 min",2.76 ± 3.95 × 10^−2 mg/L
same,Salicylate effluent ± σ,"P. fluorescens HK44; experiment 4c, biomass […] 10^9 cells/mL, feed 4.45 mg/L, τ 48 min",2.25 ± 3.47 × 10^−2 mg/L
same,Salicylate effluent ± σ,"P. fluorescens HK44; experiment 4e, biomass […] 10^9 cells/mL, feed 4.45 mg/L, τ 150 min",0.89 ± 1.54 × 10^−2 mg/L
same,Salicylate effluent ± σ,"P. fluorescens HK44; experiment 4f, biomass […] 10^9 cells/mL, feed 4.45 mg/L, τ 48 min",2.24 + 3.49 × 10^−2 mg/L
same,Salicylate effluent ± σ,"P. fluorescens HK44; experiment 3d, biomass […] 10^9 cells/mL, feed 4.45 mg/L, τ 36 min",2.77 + 4.24 × 10^−2 mg/L
same,Salicylate effluent ± σ,"P. fluorescens HK44; experiment 4d, biomass […] 10^9 cells/mL, feed 4.45 mg/L, τ 72 min",1.75 ± 2.03 × 10^−2 mg/L
same,"salicylate degradation rate constant (first order in biomass, first order in salicylate)",P. fluorescens HK44; fitted to subset 1a-c,1.88×10^−2 dm^3 g^−1 min^−1
same,"salicylate degradation rate constant (first order in biomass, first order in salicylate)",P. fluorescens HK44; fitted to subset 2a-c,2.85×10^−2 dm^3 g^−1 min^−1
same,"salicylate degradation rate constant (first order in biomass, first order in salicylate)",P. fluorescens HK44; fitted to subset 3a-f,2.06×10^−2 dm^3 g^−1 min^−1
same,"salicylate degradation rate constant (first order in biomass, first order in salicylate)",P. fluorescens HK44; fitted to subset 4a-f,2.28×10^−2 dm^3 g^−1 min^−1
same,"salicylate degradation rate constant (first order in biomass, first order in salicylate)",P. fluorescens HK44; fitted to the complete set,2.23×10^−2 dm^3 g^−1 min^−1
same,"slope of best-fit line, specific light response vs predicted salicylate concentration at the light probe",P. fluorescens HK44; studies 2a-c,1.4
same,"slope of best-fit line, specific light response vs predicted salicylate concentration at the light probe",P. fluorescens HK44; studies 3c-e,2.3
same,"slope of best-fit line, specific light response vs predicted salicylate concentration at the light probe",P. fluorescens HK44; studies 4c-f,1.5
same,conversion,P. fluorescens HK44; study 1a,0.64
same,conversion,P. fluorescens HK44; study 1c,0.73
same,conversion,P. fluorescens HK44; study 3c,0.77
same,conversion,P. fluorescens HK44; study 3e,0.41
same,conversion,P. fluorescens HK44; study 3f,0.70
same,conversion,P. fluorescens HK44; study 4b,0.62
same,conversion,P. fluorescens HK44; study 4c,0.50
same,conversion,P. fluorescens HK44; study 4f,0.50
same,conversion,P. fluorescens HK44; study 3d,0.62
same,conversion,P. fluorescens HK44; study 4d,0.39
same,adsorption on calcium alginate (in words),[1]; listed as Salicylate,did not measurably absorb
same,adsorption on calcium alginate (in words),[1]; listed as salicylate,did not appreciably partition
